Test system: P. aeruginosa (CCUG #59347)
Assay: Antibacterial activity against isolates (Omnilog, Biolog redox dye)
Assay type: cell-based, Pseudomonas aeruginosa
Conditions: Pseudomonas aeruginosa, CCUG59347; ca-MH broth, 24 h, 37 °C
Protocol: (§1) The antibacterial activities of eight compounds (1, 3, 4, 6, 8, 10, 16, and 17) were tested against 10 different isolates of Gram-negative bacteria from human and other sources, two E. coli (CCUG #67180 and CCUG #17620/ATCC #25922, control strain), two K. pneumoniae (CCUG #58547 and CCUG #225T), two P. aeruginosa (CCUG #17619 and CCUG #59347), two A. baumannii (CCUG #57035 and CCUG #57250), E. cloacae (CCUG #6323T), and E. hormaechei (CCUG #58962) in a 96-well plate format. […] Bacterial mass from the ten isolates grown overnight on horse blood or Mueller–Hinton agar plates was suspended in ca-MH and adjusted to a final inoculum cell density of ~5 × 10^5 CFU/mL. For all assays, Biolog redox dye A diluted 100× from the stock solution was used for measurements of all ten isolates (up to a total volume of 120 µL per well). All plates included one well per isolate with only inoculum and dye but no test compound (i.e., positive control) and one well per isolate with inoculum, dye and DMSO diluted 1667×, corresponding to the DMSO concentration in the wells with the highest concentration of test compound. All measurements were performed using the Omnilog microplate reader (Biolog, Hayward, CA, USA) where the 96-well plates were read at 15 min intervals for a total of 24 h at 37 °C.

Row | SMILES | EC50 [µM] | EC90 [µM]
1 | N=C(N)NCc1ccc(-c2ccc(-c3ccc(CNC(=N)N)cc3)o2)cc1 [Compound 10, 2,5-Bis(4-guanidinomethylphenyl)furan] | > 200 | > 200

Test system: K. pneumoniae (CCUG #58547)
Assay: as above
Assay type: cell-based, Klebsiella pneumoniae
Conditions: Klebsiella pneumoniae, CCUG58547; ca-MH broth, 24 h, 37 °C
Protocol: as §1

Row | SMILES | EC50 [µM] | EC90 [µM]
2 | N=C(N)NCc1ccc(-c2ccc(-c3ccc(CNC(=N)N)cc3)o2)cc1 [Compound 10, 2,5-Bis(4-guanidinomethylphenyl)furan] | > 200 | > 200

Test system: P. aeruginosa (CCUG #17619)
Assay: as above
Assay type: cell-based, Pseudomonas aeruginosa
Conditions: Pseudomonas aeruginosa, CCUG17619; ca-MH broth, 24 h, 37 °C
Protocol: (§2) The antibacterial activities of eight compounds (1, 3, 4, 6, 8, 10, 16, and 17) were tested against 10 different isolates of Gram-negative bacteria from human and other sources, two E. coli (CCUG #67180 and CCUG #17620/ATCC #25922, control strain), two K. pneumoniae (CCUG #58547 and CCUG #225T), two P. aeruginosa (CCUG #17619 and CCUG #59347), two A. baumannii (CCUG #57035 and CCUG #57250), E. cloacae (CCUG #6323T), and E. hormaechei (CCUG #58962) in a 96-well plate format. The compounds to test were 3-fold diluted in six steps in cation-adjusted Mueller-Hinton (ca-MH) broth to final concentrations spanning from 30 to 0.12 µM, i.e., a 1667–416,667 times dilution from the 50 mM stocks. Bacterial mass from the ten isolates grown overnight on horse blood or Mueller–Hinton agar plates was suspended in ca-MH and adjusted to a final inoculum cell density of ~5 × 10^5 CFU/mL. For all assays, Biolog redox dye A diluted 100× from the stock solution was used for measurements of all ten isolates (up to a total volume of 120 µL per well). All plates included one well per isolate with only inoculum and dye but no test compound (i.e., positive control) and one well per isolate with inoculum, dye and DMSO diluted 1667×, corresponding to the DMSO concentration in the wells with the highest concentration of test compound. All measurements were performed using the Omnilog microplate reader (Biolog, Hayward, CA, USA) where the 96-well plates were read at 15 min intervals for a total of 24 h at 37 °C.

Row | SMILES | EC50 [µM] | EC90 [µM]
3 | N=C(N)NCc1ccc(-c2ccc(-c3ccc(CNC(=N)N)cc3)o2)cc1 [Compound 10, 2,5-Bis(4-guanidinomethylphenyl)furan] | > 200 | > 200

Test system: A. baumannii (CCUG #57250)
Assay: as above
Assay type: cell-based, Acinetobacter baumannii
Conditions: Acinetobacter baumannii, CCUG57250, 24 h, ca-MH broth, 24 h, 37 °C
Protocol: as §2

Row | SMILES | EC90 [µM]
4 | N=C(N)NCc1ccc(-c2ccc(-c3ccc(CNC(=N)N)cc3)o2)cc1 [Compound 10, 2,5-Bis(4-guanidinomethylphenyl)furan] | > 200

Same assay, conditions: Acinetobacter baumannii, CCUG57250; ca-MH broth, 24 h, 37 °C

Row | SMILES | EC50 [µM]
5 | N=C(N)NCc1ccc(-c2ccc(-c3ccc(CNC(=N)N)cc3)o2)cc1 [Compound 10, 2,5-Bis(4-guanidinomethylphenyl)furan] | > 200

Test system: E. coli MG1655 (CGSC #6300)
Assay: Antibacterial resazurin assay, laboratory strain
Conditions: Escherichia coli, MG1655, 18 h, read-out: Eco EC50

Row | SMILES | EC50 [µM]
6 | N=C(N)NCc1ccc(-c2ccc(-c3ccc(CNC(=N)N)cc3)o2)cc1 [Compound 10, 2,5-Bis(4-guanidinomethylphenyl)furan] | 73.2

Same assay, conditions: Escherichia coli, MG1655, 18 h, read-out: Eco EC90

Row | SMILES | EC90 [µM]
7 | N=C(N)NCc1ccc(-c2ccc(-c3ccc(CNC(=N)N)cc3)o2)cc1 [Compound 10, 2,5-Bis(4-guanidinomethylphenyl)furan] | 108

Same assay, conditions: mean of MCF-7 and HepG2 EC50 over bacterial EC50, laboratory strain

Row | SMILES | Selectivity index E. coli
8 | N=C(N)NCc1ccc(-c2ccc(-c3ccc(CNC(=N)N)cc3)o2)cc1 [Compound 10, 2,5-Bis(4-guanidinomethylphenyl)furan] | 1.3

Test system: E. cloacae (CCUG #6323T)
Assay: Antibacterial activity against isolates (Omnilog, Biolog redox dye)
Assay type: cell-based, Enterobacter cloacae
Conditions: Enterobacter cloacae; ca-MH broth, 24 h, 37 °C
Protocol: as §2

Row | SMILES | EC50 [µM] | EC90 [µM]
9 | N=C(N)NCc1ccc(-c2ccc(-c3ccc(CNC(=N)N)cc3)o2)cc1 [Compound 10, 2,5-Bis(4-guanidinomethylphenyl)furan] | 12.4 | 24.7

Same assay, conditions: SI = ((EC50 MCF-7 + EC50 HepG2)/2)/EC50 bacterial strain

Row | SMILES | Selectivity index E. cloacae (CCUG #6323T)
10 | N=C(N)NCc1ccc(-c2ccc(-c3ccc(CNC(=N)N)cc3)o2)cc1 [Compound 10, 2,5-Bis(4-guanidinomethylphenyl)furan] | 7.5

Test system: not listed separately
Assay: Cytotoxicity assay (PrestoBlue) MCF-7
Assay type: cell-based
Conditions: human, MCF-7 cells (breast cancer cell line), 24 h incubation
Protocol: (§3) The cytotoxicity levels of all compounds were evaluated against human Michigan Cancer Foundation-7 (MCF-7) and Hepatoma G2 cell line (HepG2) cell lines. MCF-7 is an extensively characterized breast cancer cell line isolated in 1970 [41], while HepG2 cells were derived from a hepatoma in 1975 [42]. Both cell lines grow robustly during in vitro culture and have been widely used for cytotoxicity testing. Cells of hepatic origin, such as HepG2, are of particular relevance for toxicity studies as many drugs accumulate in the liver during metabolic conversion. Cells were grown in Dulbecco’s Modified Eagle Medium supplemented with 10% fetal calf serum and kept in exponential growth, as previously reported. Before the assay, cells were reseeded into 96-well microtiter plates at a density allowing continued exponential growth and let to settle for 24 h. The compounds were added from a stock solution in DMSO, for a final concentration of 0.3% v/v of the solvent in the culture medium. After 24 h of incubation in presence of the compound, cell viability was assayed using PrestoBlue Cell Viability Reagent (resazurin-based solution, ThermoFisher, Waltham, MA, USA) according to the manufacturer’s instructions. […] Each assay contained a DMSO control at the equivalent starting concentration, positive control (uninhibited cell growth) and negative control (cell medium only). Survival was expressed as percentage of the solvent-only control. […] The Selectivity Index (SI) for each compound and bacterial strain was calculated as the ratio between the mean of the EC50 values for the two human cell lines and the EC50 for the bacterial strain in question ((EC50 MCF-7 + EC50 HepG2)/2)/EC50 bacterial strain).

Row | SMILES | EC50 at 24 h [µM]
11 | N=C(N)NCc1ccc(-c2ccc(-c3ccc(CNC(=N)N)cc3)o2)cc1 [Compound 10, 2,5-Bis(4-guanidinomethylphenyl)furan] | 48.6

Test system: not listed separately
Assay: Cytotoxicity assay (PrestoBlue) HepG2
Assay type: cell-based
Conditions: human, HepG2 cells (hepatoma cell line), 24 h incubation
Protocol: as §3

Row | SMILES | EC50 at 24 h [µM]
12 | N=C(N)NCc1ccc(-c2ccc(-c3ccc(CNC(=N)N)cc3)o2)cc1 [Compound 10, 2,5-Bis(4-guanidinomethylphenyl)furan] | 137

Test system: E. coli (CCUG #17620/ ATCC #25922)
Assay: Antibacterial activity against isolates (Omnilog, Biolog redox dye)
Assay type: cell-based, Escherichia coli
Conditions: Escherichia coli; ca-MH broth, 24 h, 37 °C
Protocol: as §2

Row | SMILES | EC50 [µM] | EC90 [µM]
13 | N=C(N)NCc1ccc(-c2ccc(-c3ccc(CNC(=N)N)cc3)o2)cc1 [Compound 10, 2,5-Bis(4-guanidinomethylphenyl)furan] | 151 | 179

Same assay, conditions: SI = ((EC50 MCF-7 + EC50 HepG2)/2)/EC50 bacterial strain

Row | SMILES | Selectivity index E. coli (CCUG #17620/ ATCC #25922)
14 | N=C(N)NCc1ccc(-c2ccc(-c3ccc(CNC(=N)N)cc3)o2)cc1 [Compound 10, 2,5-Bis(4-guanidinomethylphenyl)furan] | 0.6

Test system: E. coli (CCUG #67180)
Assay: as above
Assay type: cell-based, Escherichia coli
Conditions: Escherichia coli, CCUG67180, 24 h, ca-MH broth, 24 h, 37 °C
Protocol: as §2

Row | SMILES | EC90 [µM]
15 | N=C(N)NCc1ccc(-c2ccc(-c3ccc(CNC(=N)N)cc3)o2)cc1 [Compound 10, 2,5-Bis(4-guanidinomethylphenyl)furan] | > 200

Same assay, conditions: Escherichia coli, CCUG67180; ca-MH broth, 24 h, 37 °C

Row | SMILES | EC50 [µM]
16 | N=C(N)NCc1ccc(-c2ccc(-c3ccc(CNC(=N)N)cc3)o2)cc1 [Compound 10, 2,5-Bis(4-guanidinomethylphenyl)furan] | 188

Same assay, conditions: SI = ((EC50 MCF-7 + EC50 HepG2)/2)/EC50 bacterial strain

Row | SMILES | Selectivity index E. coli (CCUG #67180)
17 | N=C(N)NCc1ccc(-c2ccc(-c3ccc(CNC(=N)N)cc3)o2)cc1 [Compound 10, 2,5-Bis(4-guanidinomethylphenyl)furan] | 0.5

From publication PMC9404985, “Development of Dicationic Bisguanidine-Arylfuran Derivatives as Potent Agents against Gram-Negative Bacteria” (Antibiotics, 2022)
